Assay results from patent publication US11780893B2, “Kv1.3 blockers” (Zealand Pharma A/S, priority 2019, dated 2023).
Read-outs that look alike come from different tables or passages of the source. Bridge positions count the residues as written; N and C are the ends. Square brackets hold non-standard residues; d marks the D form. Peptide text beside a SMILES is read from it. Nle = CCCC[C@H](N)C(=O)O

Experiments:
[1] = molecular target: T1, human Kv1.3 voltage-gated K+ channel (Homo sapiens, UniProt P22001); assay: cell-based; settings: inhibition of thallium flux, CHO-DUKX cells with human Kv1.3; read-out: IC50
T1 construct: host or cells: CHO-DUKX
T1 sequence (P22001 whole entry): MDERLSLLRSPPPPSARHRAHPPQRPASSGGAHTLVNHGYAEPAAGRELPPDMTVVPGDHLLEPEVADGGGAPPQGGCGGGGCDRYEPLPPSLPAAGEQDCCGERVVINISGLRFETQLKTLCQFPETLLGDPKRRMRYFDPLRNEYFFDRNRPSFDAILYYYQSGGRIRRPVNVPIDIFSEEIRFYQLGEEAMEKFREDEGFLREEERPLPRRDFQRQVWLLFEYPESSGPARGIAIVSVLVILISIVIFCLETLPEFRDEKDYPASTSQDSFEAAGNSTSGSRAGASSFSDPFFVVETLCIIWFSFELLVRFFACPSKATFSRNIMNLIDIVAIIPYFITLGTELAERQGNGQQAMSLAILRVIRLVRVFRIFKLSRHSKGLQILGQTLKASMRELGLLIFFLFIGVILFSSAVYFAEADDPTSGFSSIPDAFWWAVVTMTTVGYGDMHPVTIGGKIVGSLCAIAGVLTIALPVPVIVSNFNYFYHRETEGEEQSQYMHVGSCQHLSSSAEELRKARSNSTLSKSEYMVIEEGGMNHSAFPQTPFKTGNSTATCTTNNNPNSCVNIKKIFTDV

Rat whole blood = Rat whole blood (Rattus norvegicus, UniProt P15384)
Rat whole blood, sequence (P15384 whole entry): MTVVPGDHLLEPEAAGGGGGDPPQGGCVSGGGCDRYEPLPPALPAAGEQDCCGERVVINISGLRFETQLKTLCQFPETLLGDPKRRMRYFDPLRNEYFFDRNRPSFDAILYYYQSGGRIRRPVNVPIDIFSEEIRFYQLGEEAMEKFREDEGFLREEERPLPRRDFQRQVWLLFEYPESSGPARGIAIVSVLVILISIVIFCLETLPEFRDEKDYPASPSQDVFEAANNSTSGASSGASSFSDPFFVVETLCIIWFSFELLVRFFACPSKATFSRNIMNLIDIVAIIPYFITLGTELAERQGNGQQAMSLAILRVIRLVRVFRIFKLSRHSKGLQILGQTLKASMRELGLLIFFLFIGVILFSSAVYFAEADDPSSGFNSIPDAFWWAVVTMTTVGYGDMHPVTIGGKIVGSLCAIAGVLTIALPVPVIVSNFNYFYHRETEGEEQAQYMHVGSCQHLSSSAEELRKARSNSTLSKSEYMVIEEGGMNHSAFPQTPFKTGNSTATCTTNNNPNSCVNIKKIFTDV

[2] = inhibition of IL-17A release, thapsigargin, 24 Hr, at least 2 replicates

SMILES | IC50 [1] [pM] | IC50 (Rat whole blood) [pM] | IC50 (Rat whole blood; [2]) [pM]
CCCC[C@@H]1NC(=O)[C@@H]2CSSC[C@H](NC(=O)[C@H](CCCNC(=N)N)NC(=O)[C@H](CCC(=O)O)NC(=O)[C@H](CC(=O)O)NC(=O)[C@@H](NC(=O)[C@@H]3CCCN3)[C@@H](C)CC)C(=O)N[C@@H](CO)C(=O)N[C@@H](C)C(=O)N[C@@H](CO)C(=O)N[C@@H](C(C)C)C(=O)N[C@@H](CCC(=O)O)C(=O)N[C@H]3CSSC[C@H](NC(=O)[C@H](CCCCN)NC(=O)[C@H](CCCCN)NC(=O)[C@H](CC(N)=O)NC1=O)C(=O)N[C@@H](CCCCN)C(=O)N[C@H](C(=O)N[C@@H](Cc1ccc(O)cc1)C(=O)N1CCC[C@H]1C(=O)N[C@@H](CCCNC(=N)N)C(=O)O)CSSC[C@H](NC(=O)[C@H](CCCCN)NC(=O)[C@H](CCC(N)=O)NC(=O)[C@H](CCCCN)NC3=O)C(=O)N[C@@H](CC(C)C)C(=O)N[C@@H](C)C(=O)N[C@@H](C)C(=O)N[C@@H]([C@@H](C)CC)C(=O)NCC(=O)N[C@@H](CO)C(=O)N[C@@H]([C@@H](C)CC)C(=O)N[C@@H](Cc1ccccc1)C(=O)NCC(=O)N[C@@H](CCCCN)C(=O)N2 [Compound 100] (H-PIDERCSASVECKQKCLAAIGSIFGKC[Nle]NKKCKCYPR-OH; disulfide 6-27, 12-32, 16-34) | 850 | ≤ 1000 | 870
CCCC[C@H](NC(=O)[C@@H]1CCCN1)C(=O)N[C@@H](CC(=O)O)C(=O)N[C@@H](CCCC)C(=O)N[C@@H](CCCNC(=N)N)C(=O)N[C@H]1CSSC[C@@H]2NC(=O)[C@H](CCCCN)NC(=O)CNC(=O)[C@H](Cc3ccccc3)NC(=O)[C@H]([C@@H](C)CC)NC(=O)[C@H](CO)NC(=O)CNC(=O)[C@H]([C@@H](C)CC)NC(=O)[C@H](C)NC(=O)[C@H](C)NC(=O)[C@H](CC(C)C)NC(=O)[C@@H]3CSSC[C@@H](C(=O)N[C@@H](Cc4ccc(O)cc4)C(=O)N4CCC[C@H]4C(=O)N[C@@H](CCCNC(=N)N)C(=O)O)NC(=O)[C@H](CCCCN)NC(=O)[C@H](CSSC[C@H](NC(=O)[C@H](CCC(=O)O)NC(=O)[C@H](C(C)C)NC(=O)[C@H](CO)NC(=O)[C@H](C)NC(=O)[C@H](CO)NC1=O)C(=O)N[C@@H](C)C(=O)N[C@@H](CCC(N)=O)C(=O)N[C@@H](CCCCN)C(=O)N3)NC(=O)[C@H](CCCCN)NC(=O)[C@H](CCCCN)NC(=O)[C@H](CC(N)=O)NC(=O)[C@H](CCSC)NC2=O [Compound 102] (H-P[Nle]D[Nle]RCSASVECAQKCLAAIGSIFGKCMNKKCKCYPR-OH; disulfide 6-27, 12-32, 16-34) | 450 | ≤ 1000 | 320
CCCC[C@@H]1NC(=O)[C@@H]2CSSC[C@H](NC(=O)[C@H](CCCNC(=N)N)NC(=O)[C@@H](N)CC(C)C)C(=O)N[C@@H](CO)C(=O)N[C@@H](C)C(=O)N[C@@H](CO)C(=O)N[C@@H](C(C)C)C(=O)N[C@@H](CCC(=O)O)C(=O)N[C@H]3CSSC[C@H](NC(=O)[C@H](CCCCN)NC(=O)[C@H](CCCCN)NC(=O)[C@H](CC(N)=O)NC1=O)C(=O)N[C@@H](CCCCN)C(=O)N[C@H](C(=O)N[C@@H](Cc1ccc(O)cc1)C(=O)N1CCC[C@H]1C(=O)N[C@@H](CCCNC(=N)N)C(=O)O)CSSC[C@H](NC(=O)[C@H](CCCCN)NC(=O)[C@H](CCC(N)=O)NC(=O)[C@H](CCCCN)NC3=O)C(=O)N[C@@H](CC(C)C)C(=O)N[C@@H](CCCCN)C(=O)N[C@@H](C)C(=O)N[C@@H]([C@@H](C)CC)C(=O)NCC(=O)N[C@@H](CO)C(=O)N[C@@H]([C@@H](C)CC)C(=O)N[C@@H](Cc1ccccc1)C(=O)NCC(=O)N[C@@H](CCCCN)C(=O)N2 [Compound 114] (H-LRCSASVECKQKCLKAIGSIFGKC[Nle]NKKCKCYPR-OH; disulfide 3-24, 9-29, 13-31) | 390 |  | 2100
